The source of these data is US7960377B2 (priority 2008, dated 2011).

In assay [1] the target is T1, rat CB2 receptor (Rattus norvegicus, UniProt Q9QZN9).
T1 sequence (Q9QZN9 1-360): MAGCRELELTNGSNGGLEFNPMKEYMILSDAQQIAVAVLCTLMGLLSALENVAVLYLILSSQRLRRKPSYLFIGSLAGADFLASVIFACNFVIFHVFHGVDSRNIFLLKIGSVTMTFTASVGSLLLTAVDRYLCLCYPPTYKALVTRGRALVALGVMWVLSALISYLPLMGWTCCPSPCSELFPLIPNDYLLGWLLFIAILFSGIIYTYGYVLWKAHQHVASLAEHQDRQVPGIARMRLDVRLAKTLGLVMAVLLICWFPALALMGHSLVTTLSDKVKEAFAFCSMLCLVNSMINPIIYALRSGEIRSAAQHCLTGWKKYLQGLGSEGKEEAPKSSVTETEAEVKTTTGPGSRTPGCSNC
Put plainly: cell-based. The class given is cell-based.

The target of assay [2] is human CB1 receptor (Homo sapiens, UniProt P21554). Put plainly: cell-based.
Sequence of human CB1 receptor (P21554 whole entry): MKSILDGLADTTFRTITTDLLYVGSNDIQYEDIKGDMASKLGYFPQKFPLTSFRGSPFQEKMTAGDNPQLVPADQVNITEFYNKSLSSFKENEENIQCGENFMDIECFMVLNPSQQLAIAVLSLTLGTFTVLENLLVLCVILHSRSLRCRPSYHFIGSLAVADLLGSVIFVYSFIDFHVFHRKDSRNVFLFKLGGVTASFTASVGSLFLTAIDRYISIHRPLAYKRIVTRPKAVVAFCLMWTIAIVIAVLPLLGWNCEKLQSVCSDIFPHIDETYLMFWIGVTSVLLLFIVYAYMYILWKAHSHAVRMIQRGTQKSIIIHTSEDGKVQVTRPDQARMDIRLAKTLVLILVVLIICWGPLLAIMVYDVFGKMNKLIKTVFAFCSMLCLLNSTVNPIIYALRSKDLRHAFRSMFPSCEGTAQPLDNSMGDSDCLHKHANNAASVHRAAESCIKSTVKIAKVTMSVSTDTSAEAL

Consider `CC(C)(C)NC(=O)c1cnc2c(c1)N(S(=O)(=O)N1CCCCC1)CCO2` [Example 2, N-tert-butyl-1-(piperidin-1-ylsulfonyl)-2,3-dihydro-1H-pyrido[2,3-b][1,4]oxazine-7-carboxamide], for which the 50% effective concentration (EC50) – broadly, the concentration that produces a half-maximal response – in assay [1] was at most 30 nM.
On the same count and under the same terms, in the case of `CC(C)CNC(=O)c1cnc2c(c1)N(S(=O)(=O)c1ccc(F)cc1)CCO2` [Example 8, 1-(4-fluorophenyl-sulfonyl)-N-isobutyl-2,3-dihydro-1H-pyrido[2,3-b][1,4]oxazine-7-carboxamide] it was at most 30 nM; in that of `O=C(NC1CCCC1)c1cnc2c(c1)N(S(=O)(=O)c1ccc(F)cc1)CCO2` [Example 10], at most 30 nM; in that of `CC(C)(CO)NC(=O)c1cnc2c(c1)N(S(=O)(=O)c1ccc(C(F)(F)F)cc1)CCO2` [Example 39, N-(1-hydroxy-2-methyl-propan-2-yl)-1-(4-(trifluoromethyl)phenylsulf-onyl)-2,3-dihydro-1H-pyrido[2,3-b][1,4]oxazine-7-carboxamide], at most 30 nM.
Still for that read-out and setting: with `CCN(C(=O)c1cnc2c(c1)N(S(=O)(=O)c1ccc(C(F)(F)F)cc1)CCO2)C(C)(C)C` [Example 42, N-tert-butyl-N-ethyl-1-(4-(trifluoromethyl)phenylsulf-onyl)-2,3-dihydro-1H-pyrido[2,3-b][1,4]oxazine-7-carboxamide] the figure was at most 30 nM; with `CNC(=O)[C@@H](N(C)C(=O)c1cnc2c(c1)N(S(=O)(=O)c1ccc(F)cc1)CCO2)C(C)(C)C` [Example 58, (S)-N-(3,3-dimethyl-1-(methylamino)-1-oxobutan-2-yl)-1-(4-fluorophenylsulfonyl)-N-methyl-2,3-dihydro-1H-pyrido[2,3-b][1,4]oxazine-7-carboxamide], at most 30 nM.
On the same count and under the same terms, with `O=C(NC1(CO)CCCC1)c1cnc2c(c1)N(S(=O)(=O)c1ccc(C(F)(F)F)cc1)CCO2` [Example 67, N-(1-(hydroxymethyl)-cyclopentyl)-1-(4-(trifluoromethyl)phenylsulf-onyl)-2,3-dihydro-1H-pyrido[2,3-b][1,4]oxazine-7-carboxamide] the figure was at most 30 nM; with `C[C@H]1CCCCN1C(=O)c1cnc2c(c1)N(S(=O)(=O)c1ccc(C(F)(F)F)cc1)CCO2` [Example 69, (S)-(2-methylpiperidin-1-yl)(1-(4-(trifluoromethyl)-phenylsulfonyl)-2,3-dihydro-1H-pyrido[2,3-b][1,4]oxazin-7-yl)-methanone], at most 30 nM.
The compound `CC(C)(CO)NC(=O)c1cnc2c(c1)N(S(=O)(=O)c1ccc(F)cc1F)CCO2` [Example 102, 1-(2,4-difluorophenylsulfonyl)-N-(1-hydroxy-2-methylpropan-2-yl)-2,3-dihydro-1H-pyrido[2,3-b][1,4]oxazine-7-carboxamide] had an EC50 in assay [1] of at most 30 nM.
The same measure, in the same setting: in the case of `CC(C)(O)CNC(=O)c1cnc2c(c1)N(S(=O)(=O)c1ccc(F)c(F)c1)CCO2` [Example 109, 1-(3,4-difluorophenylsulfonyl)-N-(2-hydroxy-2-methylpropyl)-2,3-dihydro-1H-pyrido[2,3-b][1,4]oxazine-7-carboxamide] it was at most 30 nM.
`O=C(N[C@H]1CCC[C@@H]1O)c1cnc2c(c1)N(S(=O)(=O)c1ccc(Cl)cc1F)CCO2` [Example 111, 1-(4-chloro-2-fluorophenylsulfonyl)-N-((1S,2S)-2-hydroxycyclopentyl)-2,3-dihydro-1H-pyrido[2,3-b][1,4]oxazine-7-carboxamide] showed an EC50 in assay [1] of at most 30 nM.
In assay [1], `CC(C)(CN1CCOCC1)NC(=O)c1cnc2c(c1)N(S(=O)(=O)c1ccc(Cl)c(Cl)c1)CCO2` [Example 112, 1-(3,4-dichlorophenylsulfonyl)-N-(2-methyl-1-morpholinopropan-2-yl)-2,3-dihydro-1H-pyrido[2,3-b][1,4]oxazine-7-carboxamide] came in with an EC50 of at most 30 nM.
The same measure, in the same setting: with `CN(CC(C)(C)CO)C(=O)c1cnc2c(c1)N(S(=O)(=O)c1ccc(Cl)c(Cl)c1)CCO2` [Example 121, 1-(3,4-dichlorophenylsulfonyl)-N-(3-hydroxy-2,2-dimethylpropyl)-N-methyl-2,3-dihydro-1H-pyrido[2,3-b][1,4]oxazine-7-carboxamide] the figure was at most 30 nM; with `CC1(C)COCN1C(=O)c1cnc2c(c1)N(S(=O)(=O)c1ccc(Cl)c(Cl)c1)CCO2` [Example 124, (1-(3,4-dichlorophenyl-sulfonyl)-2,3-dihydro-1H-pyrido[2,3-b][1,4]oxazin-7-yl)(4,4-dimethyl-oxazolidin-3-yl)methanone], at most 30 nM.
Regarding `CC1CN(C(=O)c2cnc3c(c2)N(S(=O)(=O)c2ccc(C(F)(F)F)cc2)CCO3)CC(C)O1` (stereo not drawn) [Example 198, (2,6-dimethylmorpholino)(1-(4-(trifluoromethyl)phenylsulf-onyl)-2,3-dihydro-1H-pyrido[2,3-b][1,4]oxazin-7-yl)methanone], the EC50 in assay [2] is above 30000 nM.
Same read-out and setting: with `CC1CC(C)CN(C(=O)c2cnc3c(c2)N(S(=O)(=O)c2ccc(C(F)(F)F)cc2)CCO3)C1` (stereo not drawn) [Example 200, (3,5-dimethylpiperidin-1-yl)(1-(4-(trifluoromethyl)phenylsulf-onyl)-2,3-dihydro-1H-pyrido[2,3-b][1,4]oxazin-7-yl)methanone] the figure was above 30000 nM.
On the same count and under the same terms, with `O=C(OCC1CCCCN1)c1cnc2c(c1)N(S(=O)(=O)c1ccc(C(F)(F)F)cc1)CCO2` (stereo not drawn) [Example 202, piperidin-2-ylmethyl 1-(4-(trifluoromethyl)phenylsulfonyl)-2,3-dihydro-1H-pyrido[2,3-b][1,4]oxazine-7-carboxylate] the figure was above 30000 nM; with `CNCCOC(=O)c1cnc2c(c1)N(S(=O)(=O)c1ccc(Cl)c(Cl)c1)CCO2` [Example 203, 2-(methylamino)ethyl 1-(3,4-dichlorophenylsulfonyl)-2,3-dihydro-1H-pyrido[2,3-b][1,4]oxazine-7-carboxylate], above 30000 nM; with `CNCC(C)(C)COC(=O)c1cnc2c(c1)N(S(=O)(=O)c1ccc(Cl)c(Cl)c1)CCO2` [Example 204, 2,2-dimethyl-3-(methylamino)propyl 1-(3,4-dichlorophenylsulfonyl)-2,3-dihydro-1H-pyrido[2,3-b][1,4]oxazine-7-carboxylate], above 30000 nM.
Same read-out and setting: in the case of `O=C(c1noc(-c2cnc3c(c2)N(S(=O)(=O)c2ccc(F)cc2)CCO3)n1)N1CCOCC1` [Example 215, (5-(1-(4-fluorophenyl-sulfonyl)-2,3-dihydro-1H-pyrido[2,3-b][1,4]oxazin-7-yl)-1,2,4-oxadiazol-3-yl)(morpholino)methanone] it was above 30000 nM.
`O=C(NC1CCCC1)c1cnc2c(c1)N(Cc1ccccc1)C(=O)CO2` [Example 219, 1-benzyl-N-cyclopentyl-2-oxo-2,3-dihydro-1H-pyrido[2,3-b] [1,4]oxazine-7-carboxamide] showed an EC50 in assay [2] above 30000 nM.
Still for that read-out and setting: with `CC(C)(C)NC(=O)c1cnc2c(c1)N(Cc1ccccc1)C(=O)CO2` [Example 220, 1-benzyl-N-tert-butyl-2-oxo-2,3-dihydro-1H-pyrido[2,3-b] [1,4]oxazine-7-carboxamide] the figure was above 30000 nM; with `O=C(NC1CCCC1)c1cnc2c(c1)N(Cc1ccc(F)cc1)C(=O)CO2` [Example 221, N-cyclopentyl-1-(4-fluorobenzyl)-2-oxo-2,3-dihydro-1H-pyrido[2,3-b] [1,4]oxazine-7-carboxamide], above 30000 nM; with `O=C(NC1CCCC1)c1cnc2c(c1)N(Cc1ccc(Cl)cc1)C(=O)CO2` [Example 222, 1-(4-chlorobenzyl)-N-cyclopentyl-2-oxo-2,3-dihydro-1H-pyrido[2,3-b][1,4]oxazine-7-carboxamide], above 30000 nM.
